Assay results taken from patent US20100130738A1 (priority 2007, published 2010).

Experiments:
[1] = molecular target: T1, PDE3A catalytic domain (PDE3Acat) (Homo sapiens, UniProt Q14432); test: Phosphodiesterase inhibitory activity, recombinant PDE3Acat, [3H]cAMP; format: biochemical; details: 30° C. 20 minutes, read-out: IC50 (μmol/L) PDE3
T1 construct: isolate the cDNA of a PDE3A catalytic domain; made in house; host or cells: Sf9 insect cells (baculovirus, Bac-to-Bac / Gateway)

PDE4Bcat = molecular target: T2, PDE4Bcat (Homo sapiens, UniProt Q07343); test: Phosphodiesterase inhibitory activity, recombinant PDE4Bcat, [3H]cAMP; format: biochemical; details: 30° C. 20 minutes, read-out: IC50 (μmol/L) PDE4
T2 construct: made in house; host or cells: Sf9 insect cells (baculovirus, Bac-to-Bac / Gateway)

[2] = tested on: histamine-induced bronchoconstriction in guinea pigs; test: Histamine-induced bronchoconstriction reaction in guinea pigs; format: in vivo, guinea pig; details: Cavia porcellus, iv, 0.5 min, compound 0.3 mg/kg i.v., measured 30 seconds after administration, histamine 12.5 μg/kg i.v., read-out: Inhibition rate (histamine-induced bronchoconstriction)
Method: Guinea pigs were anesthetized with pentobarbital (30 mg/kg, i.p.). A cannula for intravenous administration, a cannula for collecting blood and measuring blood pressure, and a tracheal cannula were inserted into the left external jugular vein, right internal carotid artery, and trachea, respectively. The guinea pigs were maintained on artificial respiration under conditions of 60 times/min and 10 mL/kg/stroke. The overflowing air from the side branch of the tracheal cannula was measured by a bronchospasm transducer (Ugo-Basile) and recorded on a computer via Power Lab (ADInstruments Japan). The guinea pigs were immobilized with gallamine (10 mg/kg, i.v.), and histamine (12.5 μg/kg, i.v.) was administered at 10-minute intervals. After the histamine-induced bronchoconstriction became stable, the compound (0.3 mg/kg, i.v.) was administered. The histamine-induced bronchoconstriction reaction was measured 30 seconds after the compound administration to examine the bronchoconstriction inhibitory activity of the compound. The bronchoconstriction was recorded as the airflow value, and the results were represented by the ratio of the maximum value of the histamine-induced airflow 30 seconds after administration to the maximum value of the airflow before administration. Also, the test compounds dissolved in DMSO were used. Further, the indications were as follows: inhibition rate≧90% (+++), 90%>inhibition rate≧80% (++), and 80%>inhibition rate≧60% (+).

[3] = tested on: LPS acute inflammation model in rats; test: LPS acute inflammation model in rats (total leukocytes in BALF); format: in vivo, rat; details: 10 mg/kg orally one hour before LPS inhalation, BALF 3 hours after LPS inhalation
Method: 10 mg/kg of the compounds were orally administered to rats one hour before inhalation of a lipopolysaccharide from E. coli serotype 055:B5 (LPS), and the rats were made to inhale 50 ml of the LPS solution nebulized using a nebulizer for 30 minutes. Then, 3 hours after LPS inhalation, the rats were euthanized with 20% urethane (5 ml/rat, i.p.). 5 ml of physiological saline for bronchoalveolar lavage was injected into the bronchial tubes and alveoli through the airway, and the bronchial tubes and alveoli were washed three times using a 5 mL syringe. This operation was repeated twice, and the solution was collected as bronchoalveolar lavage fluid (BALF). The collected BALF was centrifuged at 1200 rpm and 4° C. for 10 minutes (Hirtachi; himac CR 5 DL). The pellet was re-suspended in 10 ml of a 0.1% bovine serum albumin-physiological saline, and an equivalent amount of Turk's solution was added thereto to stain leukocytes. The total number of leukocytes was counted under a microscope to calculate the inhibition rate. Further, the indications were as follows: inhibition rate≧80% (+++), 80%≧inhibition rate≧60% (++), and 60%>inhibition rate≧40% (+).

T2 sequence (Q07343 330-659 limits assumed): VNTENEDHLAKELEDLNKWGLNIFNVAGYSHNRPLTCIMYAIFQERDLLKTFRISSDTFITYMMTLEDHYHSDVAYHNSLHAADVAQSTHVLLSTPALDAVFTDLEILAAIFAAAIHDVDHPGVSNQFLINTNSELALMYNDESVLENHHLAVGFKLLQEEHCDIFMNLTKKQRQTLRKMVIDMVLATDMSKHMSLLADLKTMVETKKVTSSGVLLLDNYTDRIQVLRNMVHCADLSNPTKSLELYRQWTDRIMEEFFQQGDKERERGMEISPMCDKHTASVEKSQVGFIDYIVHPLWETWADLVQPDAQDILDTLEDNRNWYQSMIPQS
T1 sequence (Q14432 674-1093 limits assumed): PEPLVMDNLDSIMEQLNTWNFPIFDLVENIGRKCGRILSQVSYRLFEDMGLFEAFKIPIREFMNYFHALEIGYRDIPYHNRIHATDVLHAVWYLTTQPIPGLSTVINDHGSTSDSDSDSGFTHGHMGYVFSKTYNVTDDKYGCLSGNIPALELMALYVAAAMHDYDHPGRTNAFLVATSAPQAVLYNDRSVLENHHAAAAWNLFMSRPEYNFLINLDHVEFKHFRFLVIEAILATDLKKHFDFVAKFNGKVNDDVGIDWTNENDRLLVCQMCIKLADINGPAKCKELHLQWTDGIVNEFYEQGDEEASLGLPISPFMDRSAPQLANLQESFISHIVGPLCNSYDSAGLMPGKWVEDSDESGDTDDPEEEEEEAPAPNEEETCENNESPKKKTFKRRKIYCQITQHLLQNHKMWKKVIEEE

Row | IC50 [1] [µmol/L] | IC50 (PDE4Bcat) [µmol/L] | SMILES | inhibition in vivo at 0.3 mg/kg [2] [%] | Inhibition rate (total number of leukocytes in BALF) ([3]; 10 mg/kg) | Inhibition rate (total number of leukocytes in BALF) [3]
1 | < 0.01 | 0.01 to 0.1 | CCc1ccc2c(C3=NN(CCCCOc4ccc(C5=NNC(=O)CC5C)c(F)c4F)C(=O)C3(C)C)ccc(OC)c2n1 (single isomer, unassigned; (-)) [Example 211, (−)-5-(2-ethyl-8-methoxyquinolin-5-yl)-2-[4-[2,3-difluoro-4-(4-methyl-6-oxo-1,4,5,6-tetrahydropyridazin-3-yl)phenoxy]butyl]-4,4-dimethyl-2,4-dihydro-pyrazol-3-one] | ≥ 90 | ++ (80%≧inhibition rate≧60%) | –
2 | < 0.01 | 0.01 to 0.1 | CCc1ccc2c(C3=NN(CCCCOc4ccc(C5=NNC(=O)CC5C)cc4F)C(=O)C3(C)C)ccc(OC)c2n1 (single isomer, unassigned; (-)) [Example 207, (−)-5-(2-ethyl-8-methoxyquinolin-5-yl)-2-[4-[2-fluoro-4-(4-methyl-6-oxo-1,4,5,6-tetrahydropyridazin-3-yl)phenoxy]butyl]-4,4-dimethyl-2,4-dihydro-pyrazol-3-one] | ≥ 90 | – | + (60%>inhibition rate≧40%)
3 | < 0.01 | 0.01 to 0.1 | CCc1ccc2c(C3=NN(CCCCOc4ccc(C5=NNC(=O)CC5C)c(F)c4F)C(=O)C3(C)C)ccc(OC)c2n1 (centres unmarked) [Example 209, 5-(2-Ethyl-8-methoxyquinolin-5-yl)-2-[4-[2,3-difluoro-4-(4-methyl-6-oxo-1,4,5,6-tetrahydropyridazin-3-yl)phenoxy]butyl]-4,4-dimethyl-2,4-dihydro-pyrazol-3-one] | ≥ 90 | – | +++ (inhibition rate≧80%)
4 | < 0.01 | 0.01 to 0.1 | CCc1ccc2c(C3=NN(CCCCOc4ccc(C5=NNC(=O)CC5C)cc4F)C(=O)C3(C)C)ccc(OC)c2n1 (centres unmarked) [Example 205, 5-(2-Ethyl-8-methoxyquinolin-5-yl)-2-[4-[2-fluoro-4-(4-methyl-6-oxo-1,4,5,6-tetrahydropyridazin-3-yl)phenoxy]butyl]-4,4-dimethyl-2,4-dihydro-pyrazol-3-one] | ≥ 90 | – | +++ (inhibition rate≧80%)
5 | 0.1 to 1 | 0.01 to 0.1 | CCc1ccc2c(C3=NN(CCCCOc4ccc(C5=NNC(=O)CC5C)cc4F)C(=O)C3(C)C)ccc(OC)c2n1 (single isomer, unassigned; (+)) [Example 206, (+)-5-(2-Ethyl-8-methoxyquinolin-5-yl)-2-[4-[2-fluoro-4-(4-methyl-6-oxo-1,4,5,6-tetrahydropyridazin-3-yl)phenoxy]butyl]-4,4-dimethyl-2,4-dihydro-pyrazol-3-one] | – | – | + (60%>inhibition rate≧40%)
6 | < 0.01 | 0.01 to 0.1 | CCc1ccc2c(C3=NN(CCCCOc4ccc(C5=NNC(=O)CC5C)c(F)c4F)C(=O)C3(C)C)ccc(OC)c2n1 (single isomer, unassigned; (+)) [Example 210, (+)-5-(2-Ethyl-8-methoxyquinolin-5-yl)-2-[4-[2,3-difluoro-4-(4-methyl-6-oxo-1,4,5,6-tetrahydropyridazin-3-yl)phenoxy]butyl]-4,4-dimethyl-2,4-dihydro-pyrazol-3-one] | – | + (60%>inhibition rate≧40%) | –
7 | < 0.01 | 0.01 to 0.1 | COc1ccc(C2=NN(CCCCOc3ccc(C4=NNC(=O)C4(C)C)c(F)c3F)C(=O)C2(C)C)c2ccc(C)nc12 [Example 197, 2-[4-[2,3-Difluoro-4-(4,4-dimethyl-5-oxo-4,5-dihydro-1H-pyrazol-3-yl)phenoxy]butyl]-5-(8-methoxy-2-methylquinolin-5-yl)-4,4-dimethyl-2,4-dihydro-pyrazol-3-one] | ≥ 90 | – | +++ (inhibition rate≧80%)
